Test results published in patent US7846959B2, “Raf modulators and methods of use” (Exelixis, Inc., priority 2004, dated 2010).
Like-named read-outs stand apart in the source and are kept apart here.

Experiments:
c-Raf = c-Raf (Homo sapiens, UniProt P04049); test: Luciferase-coupled chemiluminescence kinase assay (ATP consumption), c-Raf; format: biochemical
Procedure, shortened: (§1)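 Enzyme ([…]) was pre-incubated with compound for 30 min at room temperature in 20 mM Tris pH 7.5, 10 mM MgCl2, 0.03% TX-100, 1 mM DTT. ATP was added and the reaction ran 3 h at ambient temperature. Remaining ATP was read by luciferase-luciferin chemiluminescence, giving IC50 values.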

B-Raf = B-Raf (Homo sapiens, UniProt P15056); test: Luciferase-coupled chemiluminescence kinase assay (ATP consumption), B-Raf; format: biochemical
B-Raf, sequence (P15056 whole entry): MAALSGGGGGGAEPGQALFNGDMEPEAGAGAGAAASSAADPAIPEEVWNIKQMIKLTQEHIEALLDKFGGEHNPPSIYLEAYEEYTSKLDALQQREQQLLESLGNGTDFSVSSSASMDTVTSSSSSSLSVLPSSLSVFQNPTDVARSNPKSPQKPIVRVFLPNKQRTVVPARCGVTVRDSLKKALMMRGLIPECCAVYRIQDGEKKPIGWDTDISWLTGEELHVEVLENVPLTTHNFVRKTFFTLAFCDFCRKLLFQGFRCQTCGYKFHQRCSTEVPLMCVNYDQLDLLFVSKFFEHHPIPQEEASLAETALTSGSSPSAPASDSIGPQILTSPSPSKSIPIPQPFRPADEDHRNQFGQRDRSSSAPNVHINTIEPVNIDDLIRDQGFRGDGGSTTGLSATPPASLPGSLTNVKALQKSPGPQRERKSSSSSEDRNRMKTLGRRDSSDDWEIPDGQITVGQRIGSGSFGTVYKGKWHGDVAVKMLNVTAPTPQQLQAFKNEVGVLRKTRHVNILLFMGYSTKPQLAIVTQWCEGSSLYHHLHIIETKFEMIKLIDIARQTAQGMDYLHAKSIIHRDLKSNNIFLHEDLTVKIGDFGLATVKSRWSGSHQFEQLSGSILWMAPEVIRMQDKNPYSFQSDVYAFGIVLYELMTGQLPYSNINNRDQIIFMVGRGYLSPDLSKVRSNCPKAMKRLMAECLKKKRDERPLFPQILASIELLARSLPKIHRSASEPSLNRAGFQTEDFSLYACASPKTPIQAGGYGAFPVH
Procedure, shortened: as §1

[1] = read-out: cRaf-1 (inhibition indicated as IC50)
[2] = read-out: bRaf (inhibition indicated as IC50)

c-Raf, sequence (P04049 whole entry): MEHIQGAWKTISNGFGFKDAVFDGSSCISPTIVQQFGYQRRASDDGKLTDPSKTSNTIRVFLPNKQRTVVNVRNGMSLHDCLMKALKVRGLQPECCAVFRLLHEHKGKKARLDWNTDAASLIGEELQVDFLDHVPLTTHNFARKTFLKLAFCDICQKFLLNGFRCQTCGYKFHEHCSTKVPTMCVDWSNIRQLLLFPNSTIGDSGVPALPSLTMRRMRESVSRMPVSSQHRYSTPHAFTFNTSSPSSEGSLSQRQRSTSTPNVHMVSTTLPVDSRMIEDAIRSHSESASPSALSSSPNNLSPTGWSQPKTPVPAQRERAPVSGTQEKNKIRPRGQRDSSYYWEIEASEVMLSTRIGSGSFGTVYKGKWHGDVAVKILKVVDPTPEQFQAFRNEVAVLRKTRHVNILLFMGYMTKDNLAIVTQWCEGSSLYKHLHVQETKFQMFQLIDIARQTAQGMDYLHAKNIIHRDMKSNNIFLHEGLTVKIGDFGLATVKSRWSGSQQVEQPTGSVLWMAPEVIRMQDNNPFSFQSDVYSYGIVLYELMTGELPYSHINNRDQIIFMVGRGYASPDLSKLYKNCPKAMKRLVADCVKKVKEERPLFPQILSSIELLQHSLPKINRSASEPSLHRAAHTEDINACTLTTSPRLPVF

SMILES	IC50 (c-Raf; read-out: cRaf-1 IC50) [nM]	IC50 (B-Raf; read-out: bRaf IC50) [nM]	IC50 (c-Raf; [1]) [nM]	IC50 (B-Raf; [2]) [nM]
COC(C)CCOC(=O)Nc1nc2cc(C3(O)c4ccccc4C(=O)N3Cc3ccccc3)ccc2[nH]1 (stereo not shown) [Entry 103, 3-(methyloxy)butyl {5-[1-hydroxy-3-oxo-2-(phenylmethyl)-2,3-dihydro-1H-isoindol-1-yl]-1H-benzimidazol-2-yl}carbamate]	< 100	< 100		
CN(CCOC(=O)Nc1nc2cc(C3(O)c4ccccc4C(=O)N3c3cccc(Cl)c3F)ccc2[nH]1)Cc1ccccc1 (stereo not shown) [Entry 297, 2-[methyl(phenylmethyl)amino]ethyl {5-[2-(3-chloro-2-fluorophenyl)-1-hydroxy-3-oxo-2,3-dihydro-1H-isoindol-1-yl]-1H-benzimidazol-2-yl}carbamate]			< 100	< 100
CN1CCCCC1COC(=O)Nc1nc2ccc(C3(O)c4ccccc4C(=O)N3c3cccc(Cl)c3F)cc2[nH]1 (stereo not shown) [Entry 302, (1-methylpiperidin-2-yl)methyl {6-[2-(3-chloro-2-fluorophenyl)-1-hydroxy-3-oxo-2,3-dihydro-1H-isoindol-1-yl]-1H-benzimidazol-2-yl}carbamate]			< 100	< 100
COC(=O)Nc1nc2ccc(C3(O)c4c(F)ccc(F)c4C(=O)N3c3cc(Cl)ccc3C)cc2[nH]1 (stereo not shown) [Entry 376, methyl {6-[2-(5-chloro-2-methylphenyl)-4,7-difluoro-1-hydroxy-3-oxo-2,3-dihydro-1H-isoindol-1-yl]-1H-benzimidazol-2-yl}carbamate]			< 100	< 100
COC(=O)Nc1nc2cc(C3(O)c4ccccc4C(=O)N3C(C)c3cccc(Cl)c3)ccc2[nH]1 (stereo not shown) [Entry 174, methyl (5-{2-[1-(3-chlorophenyl)ethyl]-1-hydroxy-3-oxo-2,3-dihydro-1H-isoindol-1-yl}-1H-benzimidazol-2-yl)carbamate]	100 to 1000	< 100		
COC(=O)Nc1nc2cc(C3(O)c4ccccc4C(=O)N3C(C)c3cccc(Cl)c3C)ccc2[nH]1 (stereo not shown) [Entry 200, methyl (5-{2-[1-(3-chloro-2-methylphenyl)ethyl]-1-hydroxy-3-oxo-2,3-dihydro-1H-isoindol-1-yl}-1H-benzimidazol-2-yl)carbamate]	1000 to 10000	1000 to 10000		
COC(=O)Nc1nc2ccc(C(=O)c3ccccc3C(=O)Nc3cc(Br)c(F)cc3F)cc2[nH]1 [Entry 410, methyl {6-[(2-{[(5-bromo-2,4-difluorophenyl)amino]carbonyl}phenyl)carbonyl]-1H-benzimidazol-2-yl}carbamate]			< 100	< 100
C=Cc1cccc(N2C(=O)c3ccccc3C2(O)c2ccc3[nH]c(NC(=O)OC)nc3c2)c1 (stereo not shown) [Entry 257, methyl {5-[2-(3-ethenylphenyl)-1-hydroxy-3-oxo-2,3-dihydro-1H-isoindol-1-yl]-1H-benzimidazol-2-yl}carbamate]	< 100	< 100		
COC(=O)Nc1nc2cc(C3(O)c4c(F)cccc4C(=O)N3c3cc(Cl)ccc3C)ccc2[nH]1 (stereo not shown) [Entry 371, methyl {5-[2-(5-chloro-2-methylphenyl)-7-fluoro-1-hydroxy-3-oxo-2,3-dihydro-1H-isoindol-1-yl]-1H-benzimidazol-2-yl}carbamate]			< 100	< 100
COC(=O)Nc1nc2cc(C3(O)c4ccccc4C(=O)N3Cc3ccc(C)cc3)ccc2[nH]1 (stereo not shown) [Entry 132, methyl (5-{1-hydroxy-2-[(4-methylphenyl)methyl]-3-oxo-2,3-dihydro-1H-isoindol-1-yl}-1H-benzimidazol-2-yl)carbamate]	100 to 1000	1000 to 10000		
C#CCCC(=O)Nc1nc2ccc(C(=O)c3ccccc3C(=O)Nc3ccc(F)cc3)cc2[nH]1 [Entry 276, N-(4-fluorophenyl)-2-{[2-(pent-4-ynoylamino)-1H-benzimidazol-6-yl]carbonyl}benzamide]			< 100	< 100
CCN(CC)CCCC(=O)Nc1nc2cc(C3(O)c4ccccc4C(=O)N3Cc3ccccc3)ccc2[nH]1 (stereo not shown) [Entry 277, 4-(diethylamino)-N-{5-[1-hydroxy-3-oxo-2-(phenylmethyl)-2,3-dihydro-1H-isoindol-1-yl]-1H-benzimidazol-2-yl}butanamide]			< 100	< 100
CN1CCC(COC(=O)Nc2nc3cc(C4(O)c5ccccc5C(=O)N4c4cccc(Cl)c4F)ccc3[nH]2)CC1 (stereo not shown) [Entry 316, (1-methylpiperidin-4-yl)methyl {5-[2-(3-chloro-2-fluorophenyl)-1-hydroxy-3-oxo-2,3-dihydro-1H-isoindol-1-yl]-1H-benzimidazol-2-yl}carbamate]			< 100	< 100

Results, then the compound that gave them:

IC50 (c-Raf; read-out: cRaf-1 IC50) [nM]	IC50 (B-Raf; read-out: bRaf IC50) [nM]	IC50 (c-Raf; [1]) [nM]	IC50 (B-Raf; [2]) [nM]	SMILES
1000 to 10000	1000 to 10000			O=C1COc2ccc(C3(O)c4ccccc4C(=O)N3Cc3cccc(F)c3)cc2N1 (stereo not shown) [Entry 36, 6-{2-[(3-fluorophenyl)methyl]-1-hydroxy-3-oxo-2,3-dihydro-1H-isoindol-1-yl}-2H-1,4-benzoxazin-3(4H)-one]
		< 100	< 100	COC(=O)Nc1nc2cc(C3(O)c4ccccc4C(=O)N3c3cccc(C(C)(C)C)c3)ccc2[nH]1 (stereo not shown) [Entry 346, methyl (5-{2-[3-(1,1-dimethylethyl)phenyl]-1-hydroxy-3-oxo-2,3-dihydro-1H-isoindol-1-yl}-1H-benzimidazol-2-yl)carbamate]
1000 to 10000	1000 to 10000			O=C1COc2ccc(C3(O)c4ccccc4C(=O)N3c3cccc(O)c3)cc2N1 (stereo not shown) [Entry 78, 6-[1-hydroxy-2-(3-hydroxyphenyl)-3-oxo-2,3-dihydro-1H-isoindol-1-yl]-2H-1,4-benzoxazin-3(4H)-one]
		< 100	< 100	O=C(Nc1nc2ccc(C3(O)c4ccccc4C(=O)N3c3cccc(Cl)c3F)cc2[nH]1)OCC(F)(F)F (stereo not shown) [Entry 345, 2,2,2-trifluoroethyl {6-[2-(3-chloro-2-fluorophenyl)-1-hydroxy-3-oxo-2,3-dihydro-1H-isoindol-1-yl]-1H-benzimidazol-2-yl}carbamate]
< 100	100 to 1000			O=C1COc2ccc(C3(O)c4ccccc4C(=O)N3c3cccc(I)c3)cc2N1 (stereo not shown) [Entry 40, 6-[1-hydroxy-2-(3-iodophenyl)-3-oxo-2,3-dihydro-1H-isoindol-1-yl]-2H-1,4-benzoxazin-3(4H)-one]
100 to 1000	100 to 1000			COc1cccc(N2C(=O)c3ccccc3C2(O)c2ccc3c(c2)NC(=O)CO3)c1 (stereo not shown) [Entry 43, 6-{1-hydroxy-2-[3-(methyloxy)phenyl]-3-oxo-2,3-dihydro-1H-isoindol-1-yl}-2H-1,4-benzoxazin-3(4H)-one]
< 100	< 100			COC(=O)Nc1nc2cc(C3(O)c4ccccc4C(=O)N3c3ccc(F)c(F)c3)ccc2[nH]1 (stereo not shown) [Entry 164, methyl {5-[2-(3,4-difluorophenyl)-1-hydroxy-3-oxo-2,3-dihydro-1H-isoindol-1-yl]-1H-benzimidazol-2-yl}carbamate]
≥ 10000	≥ 10000			CN(C(=O)c1ccccc1C(=O)c1ccc2c(c1)NC(=O)CO2)c1ccccc1 [Entry 91, N-methyl-2-[(3-oxo-3,4-dihydro-2H-1,4-benzoxazin-6-yl)carbonyl]-N-phenylbenzamide]
		< 100	< 100	COC(=O)Nc1nc2cc(C3(O)c4ccccc4C(=O)N3c3cc(OC)ccc3F)ccc2[nH]1 (stereo not shown) [Entry 381, methyl (5-{2-[2-fluoro-5-(methyloxy)phenyl]-1-hydroxy-3-oxo-2,3-dihydro-1H-isoindol-1-yl}-1H-benzimidazol-2-yl)carbamate]
1000 to 10000	1000 to 10000			NC(=O)c1cccc(N2C(=O)c3ccccc3C2(O)c2ccc3c(c2)NC(=O)CO3)c1 (stereo not shown) [Entry 81, 3-[1-hydroxy-3-oxo-1-(3-oxo-3,4-dihydro-2H-1,4-benzoxazin-6-yl)-1,3-dihydro-2H-isoindol-2-yl]benzamide]
		< 100	< 100	COC(=O)Nc1nc2cc(C3(O)c4ccccc4C(=O)N3c3cccc(Cl)c3C)ccc2[nH]1 (stereo not shown) [Entry 284, methyl {5-[2-(3-chloro-2-methylphenyl)-1-hydroxy-3-oxo-2,3-dihydro-1H-isoindol-1-yl]-1H-benzimidazol-2-yl}carbamate]
		100 to 1000	100 to 1000	CC#Cc1cccc(N2C(=O)c3ccccc3C2(O)c2ccc3[nH]c(NC(=O)OC)nc3c2)c1F (stereo not shown) [Entry 370, methyl {5-[2-(2-fluoro-3-prop-1-yn-1-ylphenyl)-1-hydroxy-3-oxo-2,3-dihydro-1H-isoindol-1-yl]-1H-benzimidazol-2-yl}carbamate]
		< 100	< 100	O=C(Nc1nc2ccc(C3(O)c4ccccc4C(=O)N3c3cccc(Cl)c3F)cc2[nH]1)OCC1CC1 (stereo not shown) [Entry 334, cyclopropylmethyl {6-[2-(3-chloro-2-fluorophenyl)-1-hydroxy-3-oxo-2,3-dihydro-1H-isoindol-1-yl]-1H-benzimidazole-2-yl}carbamate]
100 to 1000	1000 to 10000			O=C1COc2ccc(C3(O)c4ccccc4C(=O)N3c3cccc(C(F)(F)F)c3)cc2N1 (stereo not shown) [Entry 61, 6-{1-hydroxy-3-oxo-2-[3-(trifluoromethyl)phenyl]-2,3-dihydro-1H-isoindol-1-yl}-2H-1,4-benzoxazin-3(4H)-one]
< 100	< 100			COC(=O)Nc1nc2ccc(C3(O)c4ccccc4C(=O)N3Cc3cccc(Br)c3)cc2[nH]1 (stereo not shown) [Entry 120, methyl (6-{2-[(3-bromophenyl)methyl]-1-hydroxy-3-oxo-2,3-dihydro-1H-isoindol-1-yl}-1H-benzimidazol-2-yl)carbamate]
1000 to 10000	1000 to 10000			CN(C)Cc1cccc(N2C(=O)c3ccccc3C2(O)c2ccc3c(c2)NC(=O)CO3)c1 (stereo not shown) [Entry 86, 6-(2-{3-[(dimethylamino)methyl]phenyl}-1-hydroxy-3-oxo-2,3-dihydro-1H-isoindol-1-yl)-2H-1,4-benzoxazin-3(4H)-one]
